In paper PMC2901518 (British Journal of Pharmacology, 2010):
Where a chain is given by its changes, count along the chain named. Where two headings read alike, the source gives them in different places.

Legend:
Y1 receptor = molecular target: T1, Y1 receptor (Rattus norvegicus, UniProt P21555); assay: [125I]PYY competition binding, Y1/βarr2 membranes; conditions: inhibition of [125I]PYY specific binding
T1 sequence (P21555 2-382): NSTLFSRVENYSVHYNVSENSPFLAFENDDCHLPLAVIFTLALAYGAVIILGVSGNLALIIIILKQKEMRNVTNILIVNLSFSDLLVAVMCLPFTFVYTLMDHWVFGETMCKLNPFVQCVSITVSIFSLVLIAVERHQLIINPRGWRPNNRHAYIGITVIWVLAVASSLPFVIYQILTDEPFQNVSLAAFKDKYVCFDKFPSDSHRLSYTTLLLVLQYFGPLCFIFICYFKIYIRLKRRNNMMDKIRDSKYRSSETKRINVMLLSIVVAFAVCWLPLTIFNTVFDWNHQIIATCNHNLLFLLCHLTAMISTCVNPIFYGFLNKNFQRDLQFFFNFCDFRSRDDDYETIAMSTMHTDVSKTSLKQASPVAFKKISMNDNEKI

Y1 receptor ΔY346 = assay type: binding, rat
[1] = molecular target: T2, Y1 receptor STA (S352A, T353A) (Rattus norvegicus, UniProt P21555, S352A/T353A); assay: [125I]PYY competition binding, Y1 STA/βarr2 membranes
T2 sequence (P21555 2-382 S352A/T353A): T1 sequence (P21555 2-382) with S351A, T352A

Y1 receptor T356A = molecular target: T3, Y1 receptor T356A (Rattus norvegicus, UniProt P21555, T356A); assay: [125I]PYY competition binding, Y1 T356A/βarr2 membranes
T3 sequence (P21555 2-382 T356A): T1 sequence (P21555 2-382) with T355A

Y1 receptor S359A = molecular target: T4, Y1 receptor S359A (Rattus norvegicus, UniProt P21555, S359A); assay: [125I]PYY competition binding, Y1 S359A/βarr2 membranes
T4 sequence (P21555 2-382 S359A): T1 sequence (P21555 2-382) with S358A

[2] = molecular target: T5, Y1 receptor TSA (T361A, S362A) (Rattus norvegicus, UniProt P21555, S362A/T361A); assay: [125I]PYY competition binding, Y1 TSA/βarr2 membranes
T5 sequence (P21555 2-382 T361A/S362A): T1 sequence (P21555 2-382) with T360A, S361A

Y1 receptor STA, TSA = molecular target: T6, Y1 receptor STA, TSA (Rattus norvegicus, UniProt P21555, S352A/S362A/T353A/T361A); assay: [125I]PYY competition binding, Y1 STA, TSA/βarr2 membranes
T6 sequence (P21555 2-382 S352A/T353A/T361A/S362A): T1 sequence (P21555 2-382) with S351A, T352A, T360A, S361A

[3] = molecular target: T7, Y1 receptor T356A, S359A, TSA (Rattus norvegicus, UniProt P21555, S359A/S362A/T356A/T361A); assay: [125I]PYY competition binding, Y1 T356A, S359A, TSA/βarr2 membranes
T7 sequence (P21555 2-382 T356A/S359A/T361A/S362A): T1 sequence (P21555 2-382) with T355A, S358A, T360A, S361A

Y1 receptor 5A = molecular target: T8, Y1 receptor 5A (Rattus norvegicus, UniProt P21555, S352A/S359A/S362A/T353A/T361A); assay: [125I]PYY competition binding, Y1 5A/βarr2 membranes
T8 sequence (P21555 1-382 S352A/T353A/S359A/T361A/S362A): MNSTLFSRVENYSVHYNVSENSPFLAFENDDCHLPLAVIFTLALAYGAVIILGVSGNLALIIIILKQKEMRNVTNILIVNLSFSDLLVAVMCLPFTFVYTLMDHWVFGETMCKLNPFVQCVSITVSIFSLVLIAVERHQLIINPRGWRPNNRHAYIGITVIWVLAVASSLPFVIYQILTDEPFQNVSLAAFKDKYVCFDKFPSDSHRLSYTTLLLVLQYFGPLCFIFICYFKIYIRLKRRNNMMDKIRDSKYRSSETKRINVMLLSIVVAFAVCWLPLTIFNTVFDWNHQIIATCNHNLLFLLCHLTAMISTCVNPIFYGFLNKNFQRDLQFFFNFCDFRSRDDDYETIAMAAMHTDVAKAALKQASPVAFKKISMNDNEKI

Y1 receptor 6A = molecular target: T9, Y1 receptor 6A (Rattus norvegicus, UniProt P21555, S352A/S359A/S362A/T353A/T356A/T361A); assay: [125I]PYY competition binding, Y1 6A/βarr2 membranes
T9 sequence (P21555 1-382 S352A/T353A/T356A/S359A/T361A/S362A): T8 sequence (P21555 1-382 S352A/T353A/S359A/T361A/S362A) with T356A

Y2 receptor = molecular target: T10, Y2 receptor (Homo sapiens, UniProt P49146); assay type: binding
T10 sequence (P49146 1-381): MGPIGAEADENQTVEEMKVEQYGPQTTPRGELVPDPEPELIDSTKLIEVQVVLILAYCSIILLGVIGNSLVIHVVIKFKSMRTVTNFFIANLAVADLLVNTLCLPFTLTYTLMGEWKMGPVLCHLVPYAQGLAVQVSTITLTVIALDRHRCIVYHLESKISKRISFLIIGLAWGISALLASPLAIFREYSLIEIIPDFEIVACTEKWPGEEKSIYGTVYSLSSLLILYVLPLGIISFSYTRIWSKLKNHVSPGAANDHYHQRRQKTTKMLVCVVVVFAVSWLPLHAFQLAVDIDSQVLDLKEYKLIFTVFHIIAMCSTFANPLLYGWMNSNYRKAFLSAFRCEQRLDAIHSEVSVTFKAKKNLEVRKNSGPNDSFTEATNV

Y2 receptor H155P = molecular target: T11, Y2 receptor H155P (Homo sapiens, UniProt P49146, H155P); assay type: binding
T11 sequence (P49146 1-381 H155P): T10 sequence (P49146 1-381) with H155P

Y1 receptor (Y1–YFP) = Y1 receptor (Y1–YFP) (Rattus norvegicus, UniProt P21555); assay type: cell-based
Chain of Y1 receptor (Y1–YFP) (P21555 whole entry): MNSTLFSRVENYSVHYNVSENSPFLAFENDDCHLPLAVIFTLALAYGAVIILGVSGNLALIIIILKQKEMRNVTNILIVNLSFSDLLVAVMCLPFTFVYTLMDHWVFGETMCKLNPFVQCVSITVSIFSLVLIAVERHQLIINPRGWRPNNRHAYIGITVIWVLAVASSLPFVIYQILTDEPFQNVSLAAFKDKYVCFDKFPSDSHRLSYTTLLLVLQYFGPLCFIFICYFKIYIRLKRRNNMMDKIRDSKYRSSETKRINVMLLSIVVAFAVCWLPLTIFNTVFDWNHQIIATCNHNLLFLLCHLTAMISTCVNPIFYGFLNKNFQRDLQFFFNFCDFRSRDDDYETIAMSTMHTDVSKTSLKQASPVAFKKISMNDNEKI

[4] = molecular target: T12, rat Y1 receptor (association with β-arrestin2) (Rattus norvegicus, UniProt P21555); assay type: cell-based
T12 sequence (P21555 2-382): T1 sequence (P21555 2-382)

[5] = inhibition of [125I]PYY specific binding
[6] = 30 min pre-incubation, NPY 60 min
[7] = example triplicate experiment, Figure 6

Molecule: Nc1nc2c(ncn2[C@@H]2O[C@H](COP(=O)(O)OP(=O)(O)OP(O)(O)=S)[C@@H](O)[C@H]2O)c(=O)[nH]1 [GTPγS, guanosine-5′-O-(3-thio)triphosphate]
- GTPγS 1 µM inhibition (%), Y1 (Y1 receptor; 1 µM GTPγS): 58.6 ± 4.1%
- GTPγS pIC50, Y1 (Y1 receptor; 30 µg·mL−1 saponin): 9.05 ± 0.21
- GTPγS 1 µM inhibition (%), Y1 ΔY346 (Y1 receptor ΔY346; 1 µM GTPγS): 61.9 ± 8.8%
- GTPγS pIC50, Y1 ΔY346 (Y1 receptor ΔY346; [5]): 8.57 ± 0.04
- GTPγS 1 µM inhibition (%), Y1 STA ([1]; 1 µM GTPγS): 61.4 ± 4.0%
- GTPγS pIC50, Y1 STA [1, 5]: 9.00 ± 0.15
- GTPγS 1 µM inhibition (%), Y1 T356A (Y1 receptor T356A; 1 µM GTPγS): 48.3 ± 4.7%
- GTPγS pIC50, Y1 T356A (Y1 receptor T356A; [5]): 8.97 ± 0.17
- GTPγS 1 µM inhibition (%), Y1 S359A (Y1 receptor S359A; 1 µM GTPγS): 54.7 ± 3.5%
- GTPγS pIC50, Y1 S359A (Y1 receptor S359A; [5]): 9.18 ± 0.08
- GTPγS 1 µM inhibition (%), Y1 TSA ([2]; 1 µM GTPγS): 51.4 ± 4.9%
- GTPγS pIC50, Y1 TSA [2, 5]: 9.40 ± 0.10
- GTPγS 1 µM inhibition (%), Y1 STA, TSA (Y1 receptor STA, TSA; 1 µM GTPγS): 58.2 ± 5.0%
- GTPγS pIC50, Y1 STA, TSA (Y1 receptor STA, TSA; [5]): 9.03 ± 0.26
- GTPγS 1 µM inhibition (%), Y1 T356A, S359A, TSA ([3]; 1 µM GTPγS): 53.0 ± 7.4%
- GTPγS pIC50, Y1 T356A, S359A, TSA [3, 5]: 9.21 ± 0.20
- GTPγS 1 µM inhibition (%), Y1 5A (Y1 receptor 5A; 1 µM GTPγS): 55.7 ± 3.4%
- GTPγS pIC50, Y1 5A (Y1 receptor 5A; [5]): 8.81 ± 0.28
- GTPγS 1 µM inhibition (%), Y1 6A (Y1 receptor 6A; 1 µM GTPγS): 63.2 ± 1.2%
- GTPγS pIC50, Y1 6A (Y1 receptor 6A; [5]): 9.04 ± 0.02
- GTPγS 1 µM inhibition (%), Y2 (Y2 receptor; 1 µM GTPγS): 73.8 ± 3.5%
- GTPγS pIC50, Y2 (Y2 receptor; [5]): 9.19 ± 0.11
- GTPγS 1 µM inhibition (%), Y2 H155P (Y2 receptor H155P; 1 µM GTPγS): 70.2 ± 5.3%
- GTPγS pIC50, Y2 H155P (Y2 receptor H155P; [5]): 9.17 ± 0.05

Molecule: homodimeric Ile-Glu-Pro-Dpr-Tyr-Arg-Leu-Arg-Tyr-CONH2 [GR231118]
- agonist activity in Y1–YFP endocytosis assay (Y1 receptor (Y1–YFP)): inactive
- Schild slope, pooled [4, 6]: 1.5 ± 0.2
- pA2 (Schild plot), pooled [4, 6]: 8.6 ± 0.2
- agonist activity for stimulation of Y1/βarr2 BiFC ([4]; 1 h incubation): inactive
- Schild slope, example experiment [4, 7]: 1.9
- pA2 (Schild plot), example experiment [4, 7]: 8.3

Molecule: N=C(N)NCCC[C@@H](NC(=O)C(c1ccccc1)c1ccccc1)C(=O)NCc1ccc(O)cc1 [BIBP3226, (R)-N2-(diphenylacetyl)-N-[(4-hydroxyphenyl)methyl]-argininamide]
- Schild slope, example experiment [4]: 1.1
- Schild slope, pooled [4]: 1.1 ± 0.1
- effect of antagonist alone on Y1/βarr2 BiFC, % of 1 µM NPY response [4]: −4.5 ± 10.0%
